≈ marks a conversion by molar mass, not a printed value. Calls of active or inactive are those of the source. No cut-off for these calls is given here.
What was measured:
[1] = tested on: Klebsiella pneumoniae; assay: Antibacterial activity against Klebsiella pneumoniae ATCC 700603 assessed as bacterial growth inhibition incubated for 18 hrs by broth microdilution method; type: functional
[2] = tested on: Erythrocyte; assay: Hemolytic activity in mouse red blood cell assessed as hemolysis incubated for 1 hr; type: toxicity, cell-based; details: dose 4-256 µg/ml
[3] = tested on: Staphylococcus aureus; assay: Antimicrobial activity against methicillin-resistant Staphylococcus aureus ATCC 33591 assessed as inhibition of microbial growth incubated for 18 hrs by broth microdilution analysis; type: functional, organism-based; details: ATCC 33591, 18 h
[4] = Cytotoxicity against human HEK293T cells assessed as inhibition of cell growth incubated for 24 hrs by resazurin dye based analysis; type: toxicity, HEK-293T
[5] = tested on: Escherichia coli; assay: Antibacterial activity against Escherichia coli ATCC 25922 assessed as fold increase in MIC in presence of KCl; type: functional
[6] = tested on: Escherichia coli; assay: Antibacterial activity against Escherichia coli ATCC 25922 assessed as fold increase in MIC in presence of FeCl3; type: functional
[7] = tested on: Staphylococcus aureus; assay: Antibacterial activity against Staphylococcus aureus ATCC 25923 assessed as fold increase in MIC in presence of KCl; type: functional
[8] = tested on: Escherichia coli; assay: Antimicrobial activity against Escherichia coli ATCC 25922 assessed as reduction in survival bacterial growth in presence of chymotrypsin measured after 6 hrs; type: functional, organism-based
[9] = tested on: Staphylococcus aureus; assay: Inhibition of biofilm formation in Staphylococcus aureus ATCC 25923 assessed as inhibition of biofilm formation at 1/2 times MIC incubated for 24 hrs by crystal violet staining based analysis; type: functional, organism-based
[10] = tested on: Staphylococcus aureus; assay: Inhibition of biofilm formation in Staphylococcus aureus ATCC 25923 assessed as inhibition of biofilm formation at 1 times MIC incubated for 24 hrs by crystal violet staining based analysis; type: functional, organism-based
[11] = tested on: Escherichia coli; assay: Antibiofilm activity against Escherichia coli ATCC 25922 assessed as biofilm eradication at 1 times MIC incubated for 24 hrs; type: functional, organism-based
[12] = tested on: Staphylococcus aureus; assay: Antibiofilm activity against Staphylococcus aureus ATCC 25923 assessed as biofilm eradication at 1 times MIC incubated for 24 hrs; type: functional, organism-based
[13] = tested on: Staphylococcus aureus; assay: Antibiofilm activity against Staphylococcus aureus ATCC 25923 assessed as biofilm eradication at 2 times MIC incubated for 24 hrs; type: functional, organism-based
[14] = tested on: Staphylococcus aureus; assay: Antibiofilm activity against Staphylococcus aureus ATCC 25923 assessed as biofilm eradication at 8 times MIC incubated for 24 hrs; type: functional, organism-based
[15] = tested on: Staphylococcus aureus; assay: Induction of drug resistance against Staphylococcus aureus ATCC 25923 measured upto 15 passages by sequential passaging method; type: functional
[16] = tested on: Escherichia coli; assay: Antibacterial activity against gentamycin-resistant Escherichia coli ATCC 25922 assessed as reduction in bacterial growth incubated for 18 hrs by broth microdilution method; type: functional
[17] = tested on: Staphylococcus aureus; assay: Antibacterial activity against gentamycin-resistant Staphylococcus aureus ATCC 25923 assessed as reduction in bacterial growth incubated for 18 hrs by broth microdilution method; type: functional
[18] = tested on: Staphylococcus aureus; assay: Antibacterial activity against rifampicin-resistant Staphylococcus aureus ATCC 25923 assessed as reduction in bacterial growth incubated for 18 hrs by broth microdilution method; type: functional
[19] = tested on: Escherichia coli; assay: Additive antibacterial activity against Escherichia coli ATCC 25922 assessed as bacterial growth inhibition incubated for 18 hrs in presence of gentamycin by checkerboard assay; type: functional, organism-based
[20] = tested on: Escherichia coli; assay: Additive antibacterial activity against Escherichia coli ATCC 25922 assessed as bacterial growth inhibition incubated for 18 hrs in presence of rifampicin by checkerboard assay; type: functional, organism-based
[21] = tested on: Staphylococcus aureus; assay: Additive antibacterial activity against Staphylococcus aureus ATCC 25923 assessed as bacterial growth inhibition incubated for 18 hrs in presence of gentamycin by checkerboard assay; type: functional, organism-based
[22] = tested on: Staphylococcus aureus; assay: Additive antibacterial activity against Staphylococcus aureus ATCC 25923 assessed as bacterial growth inhibition incubated for 18 hrs in presence of rifampicin by checkerboard assay; type: functional, organism-based
[23] = tested on: Escherichia coli; assay: Additive antibacterial activity against gentamycin-resistant Escherichia coli ATCC 25922 incubated for 18 hrs by checkerboard assay; type: functional, organism-based
[24] = tested on: Escherichia coli; assay: Additive antibacterial activity against rifampicin-resistant Escherichia coli ATCC 25922 incubated for 18 hrs by checkerboard assay; type: functional, organism-based
[25] = tested on: Escherichia coli; assay: Bactericidal activity against Escherichia coli ATCC 25922 assessed as inhibition of bacterial growth incubated upto 360 mins by time-kill assay; type: functional, organism-based
[26] = tested on: Escherichia coli; assay: Bactericidal activity against Escherichia coli ATCC 25922 assessed as inhibition of bacterial growth at 1 times MIC measured at 180 mins by time-kill assay; type: functional, organism-based
[27] = tested on: Escherichia coli; assay: Bactericidal activity against Escherichia coli ATCC 25922 assessed as inhibition of bacterial growth at 0.5 to 2 times MIC measured at 120 mins by time-kill assay; type: functional, organism-based
[28] = tested on: Staphylococcus aureus; assay: Bactericidal activity against Staphylococcus aureus ATCC 25923 assessed as inhibition of bacterial growth at 1/2 times MIC measured upto 360 mins by time-kill assay; type: functional, organism-based
[29] = tested on: Staphylococcus aureus; assay: Bactericidal activity against Staphylococcus aureus ATCC 25923 assessed as inhibition of bacterial growth at 0.5 to 2 times MIC measured at 120 mins by time-kill assay; type: functional, organism-based
[30] = tested on: Cell membrane; assay: Induction of outer membrane permeabilization in Escherichia coli ATCC 25922 assessed as increase in fluorescence intensity at 1 to 4 times MIC measured for 12 hrs by NPN uptake assay; type: subcellular
[31] = tested on: Cell membrane; assay: Induction of outer membrane permeabilization in Escherichia coli ATCC 25922 assessed as increase in fluorescence intensity at 2 times MIC measured for 12 hrs by NPN uptake assay; type: subcellular
[32] = tested on: Escherichia coli; assay: Induction of membrane morphological changes in Escherichia coli ATCC 25922 at 4 times MIC measured at 0.5 to 2 hrs by SEM analysis; type: functional, organism-based; details: time 0.5-2 hrs
[33] = tested on: Staphylococcus aureus; assay: Induction of membrane morphological changes in Staphylococcus aureus ATCC 25923 assessed as appearance of adherent bacterial cells at 4 times MIC measured at 0.5 to 2 hrs by SEM analysis; type: functional, organism-based; details: time 0.5-2 hrs
[34] = tested on: Klebsiella pneumoniae; assay: Antibacterial activity against Klebsiella pneumoniae ATCC 700603 infected in BALB/c mouse pneumonia model at 5 to 10 mg/kg, ip measured at 4 to 12 hrs; type: functional, organism-based; details: dose 5-10 mg/kg, time 4-12 hrs
[35] = tested on: Klebsiella pneumoniae; assay: Antibacterial activity against Klebsiella pneumoniae ATCC 700603 infected in BALB/c mouse pneumonia model assessed as reduction in infiltration of inflammatory cells at 5 to 10 mg/kg, ip measured at 4 to 12 hrs by hematoxylin and eosin staining based analysis; type: functional, organism-based; details: dose 5-10 mg/kg, time 4-12 hrs
[36] = tested on: Klebsiella pneumoniae; assay: Antibacterial activity against Klebsiella pneumoniae ATCC 700603 infected in BALB/c mouse pneumonia model assessed as alveolar expansion at 5 to 10 mg/kg, ip measured at 4 to 12 hrs by hematoxylin and eosin staining based analysis; type: functional, organism-based; details: dose 5-10 mg/kg, time 4-12 hrs
[37] = Acute toxicity in Kunming mouse assessed as survival rate at 20 mg/kg, ip measured for 7 days; type: organism-based; details: in vivo, 168 h, time 7 day
[38] = Acute toxicity in ip dosed Kunming mouse assessed as lethal dose measured upto 7 days; type: organism-based; details: in vivo, time < 7 day; for LD50 at 168 h: Kunming
[39] = tested on: Staphylococcus aureus; assay: Additive antibacterial activity against gentamycin-resistant Staphylococcus aureus ATCC 25923 incubated for 18 hrs in presence of gentamycin by checkerboard assay; type: functional, organism-based
[40] = tested on: Escherichia coli; assay: Antimicrobial activity against Escherichia coli ATCC 25922 assessed as reduction in microbial growth measured for 18 hrs in presence of 64 microg/ml LPS; type: functional, organism-based

Compound | MIC [1] [µg/mL] | HC10 [2] [µg/mL] | IC50 at 24 h [4] [µg/mL] | fold change (FC) [5] | fold change (FC) [6] | fold change (FC) [7] | Activity [8] | inhibition [9] | inhibition [10] | Activity [11] | Activity [12] | Activity [13] | Activity [14] | Activity [15] | Activity [25] | Activity [28] | Activity [30] | Activity [31] | Activity [32] | Activity [33] | also measured
CCCCCCCC(=O)N[C@@H](CCN)C(=O)N[C@H](C(=O)N[C@@H](CCN)C(=O)N[C@H](Cc1ccccc1)C(=O)N[C@@H](CC(C)C)C(=O)N[C@@H](CCN)C(=O)N[C@@H](C(=O)N[C@@H](CC(C)C)C(=O)N[C@@H](Cc1ccc(O)cc1)C(N)=O)C(C)C)[C@@H](C)CC | 8 (≈ 6.71 µM) | 128 | 24.2 (≈ 20.3 µM) | <=2 | <=2 | <=2 | Active | Active | Active | Active | inactive | Active | Active | Active | Dose-Dependent Effect | inactive | Active | inactive | Active | Active | EC50 [3]: 2.99 µg/mL; MIC [16]: 2 µg/mL (≈ 1.68 µM); MIC [17]: 8 µg/mL (≈ 6.71 µM); MIC [18]: < 8 µg/mL; Activity [19]: Active; Activity [20]: Active; Activity [21]: Active; Activity [22]: Active; Activity [23]: Active; Activity [24]: Active; Activity [26]: Active; Activity [27]: Active; Activity [29]: Active; Activity [34]: Active; Activity [35]: Active; Activity [36]: Active; Activity [37]: Non-Toxic; LD50 at 168 h [38]: 33.6 mg/kg; LD ([38]; ip, 168 h): 80 mg/kg
CCCCCCC(=O)N[C@@H](CCN)C(=O)N[C@H](C(=O)N[C@@H](CCN)C(=O)N[C@H](Cc1ccccc1)C(=O)N[C@@H](CC(C)C)C(=O)N[C@@H](CCN)C(=O)N[C@@H](C(=O)N[C@@H](CC(C)C)C(=O)N[C@@H](Cc1ccc(O)cc1)C(N)=O)C(C)C)[C@@H](C)CC | 8 (≈ 6.79 µM) | 512 | 32.5 (≈ 27.6 µM) | <=2 | <=2 | <=2 | Active | Active | inactive | inactive | inactive | Active | Active | Active | Dose-Dependent Effect | inactive | Active | Active | Active | Active | EC50 [3]: 4.65 µg/mL; MIC [16]: 4 µg/mL (≈ 3.39 µM); MIC [17]: 8 µg/mL (≈ 6.79 µM); MIC [18]: < 8 µg/mL; Activity [23]: Active; Activity [24]: Active; Activity [39]: Active; Activity [26]: Active; Activity [27]: Active; Activity [40]: Active; Activity [34]: Active; Activity [35]: Active; Activity [36]: Active; Activity [37]: Non-Toxic; LD50 at 168 h [38]: 32 mg/kg
CC[C@H](C)[C@@H]1NC(=O)[C@H](CCN)NC(=O)C[C@@H](C(C)C)OC(=O)[C@H]([C@@H](C)O)NC(=O)[C@H](CC(C)C)NC(=O)[C@@H](C(C)C)NC(=O)[C@H](CCN)NC(=O)[C@H](CC(C)C)NC(=O)[C@@H](Cc2ccccc2)NC(=O)[C@H](CCN)NC1=O | 4 (≈ 3.63 µM) |  | 29.2 (≈ 26.5 µM) | <=2 | <=2 | <=2 | Active | Active | Active | inactive | inactive | Active | Active | Active | Dose-Dependent Effect | inactive | Active | Active | Active | Active | Activity [19]: Active; Activity [20]: Active; Activity [21]: Active; Activity [22]: Active; Activity [39]: Active; Activity [29]: Active; Activity [40]: Active

From ChEMBL document CHEMBL5331122, “Structure-Activity Relationship Study of Antimicrobial Peptide PE2 Delivered Novel Linear Derivatives with Potential of Eradicating Biofilms and Low Incidence of Drug Resistance” (J Med Chem, 2023)
